From PubChem BioAssay (NCI)
Values joined by “and” are separate entries in the source; they are usually repeats but may differ in a detail not shown here. Identical values can stand only once.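 In this assay, cells in 96-well plates receive the compound at five concentrations for 48 hours. Endpoints are linearly interpolated between the surrounding concentrations. GI50: concentration for 50% inhibition of growth. Definition used: TGI = concentration required for complete inhibition of growth.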

Legend:
Experiment in all cases: NCI tumour cell line growth inhibition, 48 h
[1] = test system: SK-MEL-2 melanoma
[2] = test system: K-562 leukemia
[3] = test system: A549 NSCLC
[4] = test system: NCI-H460 lung
[5] = test system: NCI-H522 lung
[6] = test system: NCI-H226 lung
[7] = test system: MCF7 breast
[8] = test system: RXF 393 renal
[9] = test system: SK-MEL-5 melanoma
[10] = test system: HL-60(TB) leukemia

Compound	GI50 [1] [µM]	TGI [1] [µM]	GI50 [2] [µM]	TGI [2] [µM]	GI50 [3] [µM]	TGI [3] [µM]	GI50 [4] [µM]	TGI [4] [µM]	GI50 [5] [µM]	TGI [5] [µM]	GI50 [6]	TGI [6]	GI50 [7] [µM]	TGI [7] [µM]	GI50 [8] [µM]	TGI [8] [µM]	GI50 [9] [µM]	TGI [9] [µM]	GI50 [10] [µM]	TGI [10] [µM]
N[C@@H](CSSC[C@H](N)C(=O)N1CCn2cc(-c3ccccc3)nc2[C@@H]1CC1CCCCC1)C(=O)N1CCn2cc(-c3ccccc3)nc2[C@@H]1CC1CCCCC1	0.837	2.28	1.48	> 100	1.37	3.05	1.92	6.4	1.68	3.39	2.02 µM	4.09 µM	1.42	2.85	1.63	3.1	0.361	1.53	2.13	> 19.7
CC(C)[C@H](C(=O)O[C@@H]1/C=C/C(=O)O[C@@H](C)CCC/C=C/[C@@H]2C[C@H](O)C[C@H]21)N(C)C	17	> 63.2	23.7	58.1	14.6	> 94.4	27.7	82.5	26.5	> 68.8	11.2 µM	44.2 µM	6.65	28.1	3.29	15.6	1.75	3.44	28.2	50.7
COc1cc(/C=C/c2ccccn2)cc(OC)c1OC	–	> 10	–	> 10	–	> 10	–	> 10	–	> 10	–	> 10 µM	–	> 10	–	> 10	–	> 10	–	> 10
Fc1ccc(C2C3CCOc4c(ccc5ccccc45)C3=NN2c2ccccc2)cc1 (stereo unspecified)	> 100	> 100	49	> 100	48.9	> 100	37.1	> 100	> 100	> 100	34.2 µM	97 µM	> 85.4	> 100	> 63.6	> 100	71.4	> 100	> 100	> 100
Oc1cccc(-c2nc(-c3ccccc3)[nH]c2-c2ccncc2)c1	6.91	18.9	11.7	> 25	14.6	> 25	11.6	> 25	11.8	> 25	> 19 µM	> 25 µM	12.8	> 25	5	14.7	3.59	14.7	7.77	19.4
COC1=CC2CCN3Cc4cc5c(cc4C(C1O)C23)OCC5 (stereo unspecified)	14.4	> 43	3.51	> 100	1.26	8.19	2.1	> 100	28	> 100	1.72 µM	7.6 µM	3.36	> 100	2.74	16.7	2.18	8.89	4.75	> 25.7
CNCCNc1nc2ccccc2c2c(=O)c3cccc(C)c3sc12	1.28	3.36	1.04	2.33	1.82	7.5	0.917	2.05	1.3	4.42	7.19 µM	16.7 µM	0.793	1.82	3.08	9.72	6.14	12.6	1.06	2.2
N=C1/C(=C2\Nc3ccccc3S2)CC(=O)N1c1ccc(SC(F)F)cc1	27.3	> 100	1.65	> 100	3.75	> 100	0.81	30.9	17.3	> 100	60.9 µM	> 100 µM	9.35	> 100	2.81	25.7	5.85	> 100	5.02	> 100
O=C1NC(=O)C(c2c[nH]c3ccccc23)=C1c1ccccc1	> 25	> 25	> 25	> 25	> 25	> 25	> 25	> 25	> 25	> 25	> 20.1 µM	> 25 µM	> 25	> 25	> 25	> 25	> 25	> 25	> 25	> 25
O=c1[nH]c(SCc2ccccc2[N+](=O)[O-])nc2nc[nH]c12	–	> 100	–	> 100	–	> 100	–	> 100	–	> 100	84.7 µM and 33.4 µM	> 100 µM and 98.3 µM	–	> 100	–	> 100	–	> 100	–	> 100
CC12CC(=O)C3C(CCC4=CC(=O)CCC43C)C1CC=C2CC(=O)O (stereo unspecified)	–	> 100	–	> 100	–	> 100	–	> 100	–	> 100	–	> 100 µM	–	> 100	–	> 100	–	> 100	–	> 100
OCc1ccc(N(Cc2ccc(F)cc2)CC2CCC2)cc1Cl	11.2	25.2	6.4	22.7	8.49	22.4	3.17	15	12.7	27.1	0.178 µM	0.525 µM	3.25	16.3	6.07	18	13.3	26.2	12.1	28.9
O=C1/C(=C/c2ccccc2[N+](=O)[O-])COc2ccc(O)c(O)c21	2.18	5.99	0.428	> 100	2.61	12.4	1.38	4.94	0.208	0.509	3.97 µM	25.2 µM	0.409	3.02	0.357	1.46	1.53	3.02	0.745	8.13
